{
  "source": "patent US8383626B2",
  "about": "“Nitric oxide donors for inducing neurogenesis” (Henry Ford Health System, priority 1999, dated 2013)",
  "test_system": "neuronal progenitor cells in the SVZ and in the dentate gyrus",
  "experiment": "Proliferation of neuronal progenitor cells (BrdU immunoreactive cells) in ischemic adult rats (embolic MCA occlusion)",
  "assay_type": "in vivo, rat",
  "description": "Two experiments were performed. In the first experiment, the effects of NO on the proliferation of neuronal progenitor cells in the SVZ and the dentate gyrus of non ischemic adult rats were examined. In the second experiment, the effects of NO on the proliferation of neuronal progenitor cells in the SVZ and in the dentate gyrus of ischemic adult rats were examined.\nBased on above data, a second experiment was performed to explore NO effects on focal embolic cerebral ischemic brain. All procedures were the same as in the first experiment except for the following procedures.\nMale Wistar rats (n=30) weighing 300-350 g were subjected to middle cerebral artery (MCA) occlusion. The MCA was occluded by placement of an embolus at the origin of the MCA. Briefly, a single intact fibrin rich 24 hour old homologous clot (about 1 μl) was placed at the origin of the MCA via a fifteen mm length of modified PE-50 catheter. The experimental protocol consisted of four groups. In Group I (control group), rats were subjected to MCA occlusion and received four consecutive intravenous bolus doses of saline (0.52 ml each, every fifteen minutes) at 24 hours after ischemia. Group II (DETNO/NO precondition) rats received four consecutive intravenous bolus doses of DETANONO (0.1 mg/kg each, every fifteen minutes, and total dose 0.4 mg/kg) at 24 hours before embolization. Group III (DETANONO two set group), animals received consecutive intravenous bolus doses of DETANONO (0.1 mg/kg each, every fifteen minutes and total dose 0.4 mg/kg) at 24 and 48 hours after occlusion. Group IV (DETANONO seven set group), animals received four consecutive intravenous bolus doses of DETANONO (0.1 mg/kg each, every fifteen minutes and total dose 0.4 mg/kg) at 24 hours after embolization. Subsequently, rats were intraperitoneally injected with DETA/NO at 0.4 mg/kg every day for six consecutive days.",
  "data": [
    {"compound": "NCCN(CCN)/[N+]([O-])=N/O", "note": "[DETANONO, DETANONOate]", "values": [
      {"measurement": "BrdU immunoreactive cells in the OB", "setting": "ischemic rats, 14 days and 42 days after MCA occlusion", "result": "Significant increases"},
      {"measurement": "BrdU immunoreactive cells in dentate gyrus", "setting": "ischemic rats, 14 days and 42 days, vs MCA occlusion group", "result": "significant increases"},
      {"measurement": "numbers of BrdU immunoreactive cells in the SVZ", "setting": "preconditioned group (24 hours before embolization), contralateral SVZ at 14 days, both SVZs at 42 days, vs non-treated MCA occlusion", "result": "Significant (p<0.05) increases"},
      {"measurement": "BrdU immunoreactive cells in the SVZ", "setting": "seven sets, contralateral and ipsilateral SVZ at 14 days and 42 days after MCA occlusion", "result": "significant increases"},
      {"measurement": "numbers of BrdU immunoreactive cells in the SVZ", "setting": "two dosage group (24 and 48 hours after occlusion), ipsilateral SVZ at 14 days, both SVZ at 42 days", "result": "significant increase"}
    ]}
  ]
}
